Experimental data taken from paper PMC10982999, “Structure-Guided Design and Optimization of Covalent VHL-Targeted Sulfonyl Fluoride PROTACs” (Journal of Medicinal Chemistry, 2024).
Read-outs that look alike come from different tables or passages of the source.

Legend:
[1] = molecular target: T1, BRD4 (HEK293 HiBiT-BRD4 Cln3 cells) (Homo sapiens, UniProt O60885); assay: BRD4 HiBiT degradation assay; type: cell-based
T1 construct: GSK; host or cells: HEK293 HiBiT-BRD4 Cln3
Procedure: Figure 3 (A) Structure of BRD-SF2. […] BRD4 and loading control GAPDH levels were visualized by Western blotting. […] (D) HEK293 HiBiT-BRD4 Cln3 cells were treated with epoxomicin (1 μM) for 3 h, followed by the respective PROTAC or VHL-SF2 dose-dependently (75–0.01 μM) for 18 h. […] (E) HEK293 HiBiT-BRD4 Cln3 cells were treated with MLN4924 (1 μM) for 3 h, followed by the respective PROTAC or VHL-SF2 dose-dependently (75–0.01 μM) for 18 h. […] (F) Structure of AR-VHL-SF2 and AR2-VHL-SF2. […] The data the show mean ± SEM (n = 3).
Cellular BRD4/AR HiBiT assay
The HiBiT tagged cells were seeded at 10,000 cells per well in a 384-well plate (Thermo Scientific, 164610) at 25 µL per well in DMEM media containing 10% FBS and incubated overnight. Compounds were dispensed using D300e Digital Dispenser (HP) and normalized to 0.1% DMSO. Cells were pre-treated with Epoxomicin or MLN4924 for 3 h before treatment or directly with the PROTAC degraders for 18 or 24 h. Nano -Glo HiBiT lytic detection assay was performed as described in the manufacturer protocol (Promega). 25 µL of premixed detection reagent was added to each well of the 384 well assay plate and incubated for 15 min on an orbital shaker (at 600 RPM), and luminescence was read using a PHERAstar FS plate reader (BMG Labtech). Corresponding background RLU values were subtracted from DMSO control values and the percentage of protein (%) of were then calculated against […]
DMSO-treated controls. […]

[2] = molecular target: T2, endogenous BRD4 in HEK293 cells (Homo sapiens, UniProt O60885); assay: Endogenous BRD4 degradation, Western blot; type: cell-based; conditions: 18 h, read-out: BRD4 long isoform Dmax
T2 construct: endogenous in cells; host or cells: HEK293

[3] = molecular target: T1, BRD4 (HEK293 HiBiT-BRD4 Cln3 cells); type: cell-based; conditions: 5 h treatment, PBS washing, 24 h recovery with excess VH032 (50 μM) vs standard treatment 29 h; from AUC of residual BRD4 long isoform
Procedure: To further investigate the potential advantage of a covalent VHL ligand, we performed a head-to-head comparison of BRD-SF2 and MZ-1 in a washout experiment.
BRD4 and loading control Tubulin levels were visualized by Western blotting. […] BRD4 and loading control Tubulin levels were visualized by Western blotting.
with BRD-SF2 and MZ1, followed by 3 cycles of PBS wash, where media was aspirated, and
PBS used to gently wash the cells before allowing 24 h recovery incubation in DMEM media
The control plate was run as
described above, but no washout was applied making the total incubation time 29 h (5 h + 24
h). The assay was performed and analysed as described above.

BRD4-HiBiT HEK293T cells = conditions: 18 h, 70-0.01 μM
[4] = molecular target: T3, recombinant human VCB (VHL protein with elongin C and elongin B) (Homo sapiens, UniProt P40337); assay: Gel-based streptavidin shift assay (anti-VHL Western blot); type: binding; conditions: 10 μM probe, 2 h incubation at room temperature
T3 construct: human VHL (UniPort entry P40337, residues 1 -213); 6xHis followed by TEV site (N, cleaved yes); made in house; host or cells: E. coli One Shot BL21(DE3)
Procedure: (§1) To assess the ability of VHL-SF1 to covalently modify VHL, we initially developed a streptavidin shift assay in which we exposed recombinant human VCB, a stable complex of VHL protein with elongin C and elongin B, to VHL-SF1-Biotin. VHL biotinylation could then be directly quantified by the apparent shift in molecular weight observed when the sample was mixed with streptavidin and analyzed by an anti-VHL Western blot (Figure S2).[20] Through this assay, we concluded that 10 μM VHL-SF1-Biotin modified 32% VHL following 2 h of incubation at room temperature, which was further confirmed to be concentration-dependent with respect to the probe (Figure S3).
Figure S2. (A) Structure of VHL-SF-1-Biotin. (B) Structure of VHL-SF-2-Biotin. (C - E) Gel-based streptavidin shift assay of VHL-SF1-Biotin, and VHL-SF2-Biotin. VCB protein was pre-treated with DMSO, VHL-SF1-Biotin (10 μM) or VHL-SF2-Biotin (10 μM) for 2 h at room temperature prior to addition of streptavidin (10 μM, 10 min) at room temperature, after which protein was resolved on SDS-PAGE and visualised by VHL western blotting. (F) Quantification of VHL levels from western blot.
Docking analysis with Molecular Operating Environment (MOE)
Molecular modelling studies were conducted using the software Molecular Operating Environment 2019.01. […]

VCB protein = molecular target: T4, VCB protein (Homo sapiens, UniProt P40337); assay: Gel-based labelling of VHL (Neutravidin HRP blot); type: binding; conditions: 2 h at room temperature, 1-100 µM probe
T4 construct: human VHL (UniPort entry P40337, residues 1 -213); 6xHis followed by TEV site (N, cleaved yes); made in house; host or cells: E. coli One Shot BL21(DE3)
Procedure: as §1
Figure S3. (A) Gel-based VHL labelling of VHL-SF1-Biotin, and (B) VHL-SF2-Biotin. […]
Figure S4. Dose-response of VHL-SF1 following a 2 h pre-incubation in the presence of VCB and FAM-conjugated HIF1α-derived peptide, assessed by fluorescence polarization. […]
VCB (11.1 mg/ mL) was diluted with PBS pH 7.4 (2 µg/ mL). […] 10 µL of each sample was loaded onto the gel and the bands were quantified […]
HEK293T cells were plated into two 6 well plates (in 1 mL media 10% FBS low glucose media) at a cell density of 1.0 x 10^6 cells/well 24 h before treatment. […] Proteins were separated by SDS -PAGE and further analyzed by immunoblotting. […]

Compound | Dmax ([1]; HEK293, read-out: Dmax (BRD4 degradation)) [%] | BRD4 depletion in presence of NEDDylation inhibitor MLN4924 ([1]; MLN4924 1 μM 3 h pretreatment, then compound 18 h) | BRD4 depletion in presence of proteasome inhibitor epoxomicin ([1]; epoxomicin 1 μM 3 h pretreatment, then compound 18 h) | DC50 ([1]; read-out: BRD4 DC50) [µM] | DC50 ([1]; read-out: DC50 (BRD4 degradation), 18 h incubation) [µM] | Dmax [2] [%] | relative decrease in degradation activity after washout [3] [%] | cytotoxicity (CellTiter-Glo) (BRD4-HiBiT HEK293T cells) | VHL modified (VHL biotinylation, streptavidin shift) [4] [%] | VHL labelling with respect to probe concentration (VCB protein)
COCC(COC)n1c(-c2cc(C)c(=O)n(C)c2)nc2cc(C3CCN(C(=O)COCCOCCOCCNC(=O)C[C@H](NC(=O)[C@@H]4C[C@@H](S(=O)(=O)F)CN4C(=O)[C@@H](c4cc(C)no4)C(C)C)c4ccc(-c5scnc5C)cc4)CC3)ccc21 [BRD-SF2, (3R,5S)-5-(((S)-1-(4-(1-(1,3-Dimethoxypropan-2-yl)-2-(1,5-dimethyl-6-oxo-1,6-dihydropyridin-3-yl)-1H-benzo[d]imidazole-5-yl)piperidin-1-yl)-15-(4-(4-methylthiazol-5-yl)phenyl)-1,13-dioxo-3,6,9-trioxa-12-azapentadecan-15-yl)carbamoyl)-1-((R)-3-methyl-2-(3-methylisoxazol-5-yl)butanoyl)pyrrolidine-3-sulfonyl fluoride] | 60 | not depleted | not depleted | 17 | 17.2 | 50 | 27 | no evidence of cytotoxicity | – | –
(3R,5S)-1-((S)-2-(tert-Butyl)-4,16-dioxo-20-((3aS,4R,6aR)-2-oxohexahydro-1H-thieno[3,4-d]imidazole-4-yl)-6,9,12-trioxa-3,15-diazaicosanoyl)-5-((4-(4-methylthiazol-5-yl)benzyl)carbamoyl-)pyrrolidine-3-sulfonyl fluoride [VHL-SF1-Biotin] | – | – | – | – | – | – | – | – | 32 | concentration-dependent
